“And” between values parts separate entries of the source, which are not always exact repeats. Equal entries are not always repeated.
Test: xn = mol fraction of the nth substance listed
Details: x2 = 0.79; for mass density / electrical conductivity: 100 kPa, Liquid; for mass density: Buoyancy - hydrostatic balance; for electrical conductivity: Alternating current cell with electrodes; for surface tension liquid-gas: Maximal bubble pressure

[Ca+2].[F-].[F-] [calcium fluoride] + [F-].[Li+]
Details | electrical conductivity [S/m] | mass density | surface tension liquid-gas [mN/m]
1101 K | – | 2084.8 kg/m3 | –
1101.5 K | – | 2084.2 kg/m3 | –
1101.8 K | – | 2084.1 kg/m3 | –
1101.9 K | 0.05606 | – | –
1102.1 K | – | 2083.6 kg/m3 | –
1102.6 K | – | 2082.9 kg/m3 | –
1102.9 K | – | 2082.4 kg/m3 | –
1103.2 K | – | 2082.3 kg/m3 | –
1103.6 K | 0.05634 | – | –
1103.8 K | – | 2081.7 kg/m3 | –
1104.2 K | – | 2081.1 kg/m3 | –
1104.6 K | – | 2080.5 kg/m3 | –
1105.2 K | – | 2079.9 kg/m3 | –
1105.3 K | 0.05637 | – | –
1105.5 K | – | 2079.3 kg/m3 | –
1105.7 K | – | 2079.2 kg/m3 | –
1106.3 K | – | 2078.6 kg/m3 | –
1106.6 K | – | 2078 kg/m3 | –
1107 K | – | 2077.4 kg/m3 | –
1107.1 K | 0.05654 | – | –
1107.6 K | – | 2077.4 kg/m3 | –
1107.9 K | – | 2076.8 kg/m3 | –
1108.5 K | – | 2076.1 kg/m3 | –
1108.8 K | 0.05671 | 2076.1 kg/m3 | –
1109.1 K | – | 2074.4 kg/m3 | –
1109.5 K | – | 2073.8 kg/m3 | –
1110 K | – | 2073.2 kg/m3 | –
1110.3 K | – | 2073.1 kg/m3 | –
1110.5 K | 0.05682 | – | –
1110.6 K | – | 2072 kg/m3 | –
1111.2 K | – | 2071.9 kg/m3 | –
1111.6 K | – | 2071.3 kg/m3 | –
1111.8 K | – | 2070.8 kg/m3 | –
1112 K | – | – | 221.4
1112.3 K | 0.05703 | 2070.1 kg/m3 | –
1112.8 K | – | 2069.5 kg/m3 | –
1113 K | – | 2069.5 kg/m3 | –
1113.5 K | – | 2068.9 kg/m3 | –
1114 K | 0.05718 | – | –
1114.2 K | – | 2068.3 kg/m3 | –
1114.3 K | – | 2068.2 kg/m3 | –
1114.7 K | – | 2067.1 kg/m3 and 2067.6 kg/m3 | –
1114.9 K | – | 2066.5 kg/m3 | –
1115.4 K | – | 2066.4 kg/m3 | –
1115.7 K | 0.05729 | 2065.9 kg/m3 | –
1115.9 K | – | 2065.3 kg/m3 | –
1116.2 K | – | 2064.7 kg/m3 | –
1116.7 K | – | 2064.6 kg/m3 | –
1117 K | – | 2064 kg/m3 | –
1117.4 K | 0.05756 | – | –
1117.5 K | – | 2063.4 kg/m3 | –
1118 K | – | 2068.9 kg/m3 | –
1118.4 K | – | 2068.3 kg/m3 | –
1118.8 K | – | 2067.7 kg/m3 | –
1119 K | – | 2067.7 kg/m3 | –
1119.2 K | 0.05765 | – | –
1119.4 K | – | 2067.1 kg/m3 | –
1119.7 K | – | 2066.5 kg/m3 | –
1120.1 K | – | 2065.9 kg/m3 | –
1120.5 K | – | 2065.8 kg/m3 | –
1120.9 K | 0.0578 | – | –
1121 K | – | 2069.1 kg/m3 | –
1121.2 K | – | 2068.5 kg/m3 | –
1121.7 K | – | 2067.9 kg/m3 | –
1122.2 K | – | 2067.3 kg/m3 | –
1122.5 K | – | 2066.7 kg/m3 | –
1122.7 K | 0.05808 | – | –
1123.3 K | – | 2066.1 kg/m3 and 2066.6 kg/m3 | –
1123.7 K | – | 2065.5 kg/m3 | –
1124.4 K | 0.05824 | 2064.8 kg/m3 | –
1124.8 K | – | 2064.2 kg/m3 | –
1125.1 K | – | 2063.6 kg/m3 | –
1126 K | – | 2063.5 kg/m3 | –
1126.1 K | 0.05803 | – | –
1126.2 K | – | 2062.9 kg/m3 | –
1126.3 K | – | 2062.4 kg/m3 | –
1126.7 K | – | 2061.8 kg/m3 | –
1127.5 K | – | 2061.1 kg/m3 | –
1127.9 K | 0.05831 | 2060.5 kg/m3 and 2061.1 kg/m3 | –
1128.4 K | – | 2059.9 kg/m3 | –
1128.8 K | – | 2059.9 kg/m3 | –
1128.9 K | – | 2069.8 kg/m3 | –
1129.5 K | 0.0585 | – | –
1129.8 K | – | 2069.1 kg/m3 | –
1130.2 K | – | 2068.5 kg/m3 | –
1130.3 K | – | 2068 kg/m3 | –
1131 K | – | 2067.3 kg/m3 | 218.4

From the NIST ThermoML archive (doi:10.1021/acs.jced.5b00536)
